Values quoted from earlier work in US20040097404A1, “Supplement to be enternally administered for parenteral nutrition or partial enteral/oral nurtrition of the critically ill, the chronically ill and people with malnutrition” (priority 2000, published 2004).

Columns and labels:
[1] = oral, daily doses of 50 to 400 mg/kg of body weight over 3 weeks

butyrate concentration in the plasma [1] [mmol]	SMILES	carcinogenic properties at autopsy (parenteral form for 21 years, patient)	toxicity (trivalent chromium)	toxic side effects [1]
	[Cr+3] [trivalent chromium]	no evidence of carcinogenic properties	nontoxic	
~0.5	CCCC(=O)OCC(COC(=O)CCC)OC(=O)CCC [glycerol tributyrate]			without detectable toxic side effects
